Counter-ions that a name gives are not always drawn. Each block holds one molecule with its values, some of them ahead of it.
Tests used:
[1] = Pharmacokinetic parameters for single and multiple oral doses of nirogacestat dihydrobromide; assay type: in vivo
From the text: The pharmacokinetic parameters for single and multiple oral doses of nirogacestat dihydrobromide (PF-03084014) are provided in Table 1 below.

[2] = tested on: progressing desmoid tumors; settings: Phase 2 study, participants with progressing desmoid tumors; cited from earlier work
[3] = Cohort 1: 150 mg, 1 × 150 mg, APERIOD 2, EXDOSE 150, N 10, Geometric Mean
[4] = Cohort 1: 150 mg, 1 × 150 mg, APERIOD 2, EXDOSE 150, N 10, Max
[5] = Cohort 1: 150 mg, 1 × 150 mg, APERIOD 2, EXDOSE 150, N 10, Median
[6] = Cohort 1: 150 mg, 1 × 150 mg, APERIOD 2, EXDOSE 150, N 10, Min
[7] = Cohort 1: 150 mg, 3 × 50 mg, APERIOD 1, EXDOSE 150, N 10, Max
[8] = Cohort 1: 150 mg, 3 × 50 mg, APERIOD 1, EXDOSE 150, N 10, Min
[9] = Cohort 2: 100 mg, APERIOD 1, EXDOSE 100, N 8, Geometric Mean
[10] = Cohort 2: 100 mg, APERIOD 1, EXDOSE 100, N 8, Max
[11] = Cohort 2: 100 mg, APERIOD 1, EXDOSE 100, N 8, Median
[12] = Cohort 2: 100 mg, APERIOD 1, EXDOSE 100, N 8, Min
[13] = Cohort 3: 50 mg, APERIOD 1, EXDOSE 50.0, N 8, Max
[14] = Cohort 3: 50 mg, APERIOD 1, EXDOSE 50.0, N 8, Median
[15] = Cohort 3: 50 mg, APERIOD 1, EXDOSE 50.0, N 8, Min

AUCinf [1, 3]: 3020 ng·h/mL
AUClast [1, 3]: 2930 ng·h/mL
CL/F [1, 3]: 49.7 L/h
Cmax [1, 3]: 686 ng/mL
Half-life [1, 3]: 24.7 h
AUCinf [1, 4]: 5880 ng·h/mL
AUClast [1, 4]: 5720 ng·h/mL
CL/F [1, 4]: 82.0 L/h
Cmax [1, 4]: 1200 ng/mL
Half-life [1, 4]: 34.7 h
Tmax [1, 4]: 1.52 h
AUCinf [1, 5]: 3100 ng·h/mL
AUClast [1, 5]: 3040 ng·h/mL
CL/F [1, 5]: 48.4 L/h
Tmax [1, 5]: 1.50 h
AUCinf [1, 6]: 1830 ng·h/mL
AUClast [1, 6]: 1790 ng·h/mL
CL/F [1, 6]: 25.5 L/h
Cmax [1, 6]: 456 ng/mL
Half-life [1, 6]: 13.3 h
Tmax [1, 6]: 0.500 h
CL/F ([1]; Cohort 1: 150 mg, 3 × 50 mg, APERIOD 1, EXDOSE 150, N 10, Geometric Mean): 49.2 L/h
AUCinf [1, 7]: 4870 ng·h/mL
AUClast [1, 7]: 4660 ng·h/mL
CL/F [1, 7]: 69.5 L/h
Cmax [1, 7]: 1120 ng/mL
Half-life [1, 7]: 32.0 h
Tmax [1, 7]: 2.00 h
CL/F ([1]; Cohort 1: 150 mg, 3 × 50 mg, APERIOD 1, EXDOSE 150, N 10, Median): 57.0 L/h
AUCinf [1, 8]: 2160 ng·h/mL
AUClast [1, 8]: 2080 ng·h/mL
CL/F [1, 8]: 30.8 L/h
Cmax [1, 8]: 547 ng/mL
Half-life [1, 8]: 18.1 h
AUCinf [1, 9]: 1780 ng·h/mL
AUClast [1, 9]: 1720 ng·h/mL
CL/F [1, 9]: 56.1 L/h
Cmax [1, 9]: 435 ng/mL
Half-life [1, 9]: 25.2 h
Tmax [1, 9]: 1.19 h
AUCinf [1, 10]: 3940 ng·h/mL
AUClast [1, 10]: 3710 ng·h/mL
CL/F [1, 10]: 124 L/h
Cmax [1, 10]: 654 ng/mL
Half-life [1, 10]: 34.6 h
Tmax [1, 10]: 2.00 h
CL/F [1, 11]: 58.4 L/h
Half-life [1, 11]: 24.4 h
AUCinf [1, 12]: 805 ng·h/mL
AUClast [1, 12]: 777 ng·h/mL
CL/F [1, 12]: 25.4 L/h
Cmax [1, 12]: 259 ng/mL
Half-life [1, 12]: 19.7 h
Tmax [1, 12]: 0.500 h
CL/F ([1]; Cohort 3: 50 mg, APERIOD 1, EXDOSE 50.0, N 8, Geometric Mean): 87.6 L/h
AUCinf [1, 13]: 2140 ng·h/mL
AUClast [1, 13]: 2120 ng·h/mL
CL/F [1, 13]: 660 L/h
Cmax [1, 13]: 507 ng/mL
Half-life [1, 13]: 32.8 h
Tmax [1, 13]: 1.52 h
CL/F [1, 14]: 74.9 L/h
Half-life [1, 14]: 23.3 h
AUCinf [1, 15]: 75.7 ng·h/mL
AUClast [1, 15]: 71.6 ng·h/mL
CL/F [1, 15]: 23.4 L/h
Cmax [1, 15]: 49.6 ng/mL
Half-life [1, 15]: 4.24 h
Tmax [1, 15]: 0.500 h
Compound: CCC[C@H](N[C@H]1CCc2cc(F)cc(F)c2C1)C(=O)Nc1cn(C(C)(C)CNCC(C)(C)C)cn1 [nirogacestat dihydrobromide, (S)-2-(((S)-6,8-difluoro-1,2,3,4-tetrahydronaphthalen-2-yl)amino)-N-(1-(2-methyl-1-(neopentylamino)propan-2-yl)-1H-imidazol-4-yl)pentanamide]

Compound: CCC[C@H](N[C@H]1CCc2cc(F)cc(F)c2C1)C(=O)Nc1cn(C(C)(C)CNCC(C)(C)C)cn1 [nirogacestat, (S)-2-(((S)-6,8-difluoro-1,2,3,4-tetrahydronaphthalen-2-yl)amino)-N-(1-(2-methyl-1-(neopentylamino)propan-2-yl)-1H-imidazol-4-yl)pentanamide]
participants progressing while on therapy [2]: no participants progressing while on therapy
response rate [2]: 29%
tumor shrinkage as measured by magnetic resonance imaging (MRI) [2]: significant tumor shrinkage
